Read-outs that look alike come from different tables or passages of the source.
Assays:
GST-ER-α –LBD = molecular target: T1, GST-ER-α –LBD (Homo sapiens, UniProt P03372); assay: Competitive binding assay using [3H]E2; settings: for binding to ER-α (in words): [3H]E2 tracer; for ERR-γ receptor selectivity ER-α (IC50, nM)/ERR-γ (IC50, nM): ratio of IC50 values, ER-α over ERR-γ; for IC50: read-out: Binding affinity for ER-α (IC50)
T1 sequence (P03372 311-547 limits assumed): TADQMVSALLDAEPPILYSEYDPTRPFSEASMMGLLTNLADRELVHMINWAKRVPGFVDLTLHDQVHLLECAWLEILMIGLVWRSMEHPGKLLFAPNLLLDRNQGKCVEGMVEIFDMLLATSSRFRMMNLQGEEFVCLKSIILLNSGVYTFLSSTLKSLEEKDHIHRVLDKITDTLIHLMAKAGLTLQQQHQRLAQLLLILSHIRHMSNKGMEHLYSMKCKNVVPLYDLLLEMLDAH

[1] = molecular target: T2, GST-ERR-γ –LBD (human ERR-γ) (Homo sapiens, UniProt P62508); assay: Competitive receptor binding assay using [3H]BPA as tracer; settings: for fold weaker binding affinity for ERR-γ than bisphenol E: ratio of IC50 vs bisphenol E
T2 construct: made in house; host or cells: Escherichia coli BL21α (vector pGEX6P-1)
T2 sequence (P62508 233-457 limits assumed): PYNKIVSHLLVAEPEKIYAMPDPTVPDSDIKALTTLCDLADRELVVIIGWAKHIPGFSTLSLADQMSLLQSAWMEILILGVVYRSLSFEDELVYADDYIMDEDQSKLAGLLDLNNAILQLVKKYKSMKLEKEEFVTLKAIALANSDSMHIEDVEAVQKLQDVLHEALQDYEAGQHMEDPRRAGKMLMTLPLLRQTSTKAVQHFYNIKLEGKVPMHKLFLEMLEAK
Excerpt: ERR-γ –LBD was amplified from a human kidney cDNA library (Clontech Laboratories, Mountain View, CA, USA) by polymerase chain reaction (PCR) using gene-specific primers and cloned into pGEX6P-1 (Amersham Biosciences, Piscataway, NJ, USA). Glutathione S-transferase (GST)–fused receptor protein expressed in Escherichia coli BL21α was purified on an affinity column of glutathione-sepharose 4B (GE Healthcare BioSciences Co., Piscataway, NJ, USA) to obtain GST-ERR-γ –LBD.
The reaction mixtures were incubated for 2 hr at 4°C and free radioligand was removed with 1% DCC by filtration as described above. Radioactivity was determined on a liquid scintillation counter (TopCount NXT; PerkinElmer Life Sciences Tokyo, Japan). […] Each assay was performed in duplicate and repeated at least three times.

human ERR-γ = molecular target: T3, human ERR-γ (Homo sapiens, UniProt P62508); settings: HeLa cells; for inhibition of the inverse agonist (deactivation) activity of 4-OHT: added along with 1.0 μM 4-OHT; for effect on constitutive basal activity of ERR-γ: compound alone
T3 sequence (P62508 1-458): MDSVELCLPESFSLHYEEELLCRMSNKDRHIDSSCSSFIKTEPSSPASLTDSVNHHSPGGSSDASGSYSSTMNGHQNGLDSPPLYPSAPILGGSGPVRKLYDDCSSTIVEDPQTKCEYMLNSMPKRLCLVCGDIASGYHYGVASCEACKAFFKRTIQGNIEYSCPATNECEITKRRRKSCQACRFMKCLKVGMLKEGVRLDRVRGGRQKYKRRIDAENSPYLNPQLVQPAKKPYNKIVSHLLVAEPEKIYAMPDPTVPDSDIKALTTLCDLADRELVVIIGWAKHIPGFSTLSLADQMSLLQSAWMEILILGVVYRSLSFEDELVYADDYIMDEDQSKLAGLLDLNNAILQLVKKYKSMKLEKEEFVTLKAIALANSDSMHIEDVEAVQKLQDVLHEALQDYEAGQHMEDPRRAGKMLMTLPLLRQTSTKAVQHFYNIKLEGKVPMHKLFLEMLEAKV
Method: HeLa cells were maintained in Eagle’s MEM (EMEM; Nissui, Tokyo, Japan) in the presence of 10% (vol/vol) fetal bovine serum at 37°C. For luciferase assays, HeLa cells were seeded at 5 × 10^5 cells/6-cm dish for 24 hr and then transfected with 4 μg of reporter gene (pGL3/3 × ERRE) and 3 μg of ERR-γ expression plasmids (pcDNA3/ERR-γ ) by Lipofectamine Plus reagent (Invitrogen Japan, Tokyo, Japan) according to the manufacturer’s protocol. Approximately 24 hr after transfection, cells were harvested and plated into 96-well plates at 5 × 10^4 cells/well. The cells were then treated with varying doses of chemicals diluted with 1% bovine serum albumin/phosphate-buffered saline (BSA/PBS, vol/vol). […] After 24 hr, luciferase activity was measured with the appropriate reagent using a Luciferase Assay System (Promega, Madison, WI, USA) according to the manufacturer’s instructions. […] Cells treated with 1% BSA/PBS were used as a vehicle control. Each assay was performed in triplicate and repeated at least three times.

[2] = read-out: Binding affinity for ERR-γ (IC50)

Compound	binding to ER-α (in words) (GST-ER-α –LBD)	IC50 [1, 2]	ERR-γ receptor selectivity ER-α (IC50, nM)/ERR-γ (IC50, nM) (GST-ER-α –LBD)	also measured
CC(C)(C)c1ccc(O)cc1 [4-tert-Butylphenol, 4-tert-butylphenol]	almost completely inactive	–	–	–
CCc1ccc(O)cc1 [4-Ethylphenol, 4-ethylphenol]	–	289 ± 45.9 nM	–	–
CCC(C)(c1ccc(O)cc1)c1ccc(O)cc1 [Bisphenol B, 2,2-bis(4-hydroxyphenyl)butane]	–	26.3 ± 2.65 nM	about 9.5	IC50 (GST-ER-α –LBD): 246 ± 29.7 nM
Oc1ccc(Cc2ccc(O)cc2)cc1 [Bisphenol F, bis(4-hydroxyphenyl)methane]	almost completely inactive	131 ± 17.9 nM	Exclusively ERR-γ	fold weaker binding affinity for ERR-γ than bisphenol E [1]: approximately 16 fold
CC(c1ccccc1)(c1ccc(O)cc1)c1ccc(O)cc1 [Bisphenol AP, 4,4′-(1-phenylethylidene)bisphenol]	–	123 ± 15.1 nM	–	fold weaker binding affinity for ERR-γ than bisphenol E [1]: approximately 15 fold; IC50 (GST-ER-α –LBD): 361 ± 22.6 nM
CCC(C)(C)c1ccc(O)cc1 [4-tert-Amylphenol, 4-tert-amylphenol]	almost completely inactive	33.2 ± 2.85 nM	Exclusively ERR-γ	–
CC(c1ccc(O)cc1)c1ccc(O)cc1 [Bisphenol E, 2,2-bis(4-hydroxyphenyl)ethane]	almost completely inactive	8.14 ± 0.83 nM	Exclusively ERR-γ	inhibition of the inverse agonist (deactivation) activity of 4-OHT (human ERR-γ): inhibited the inverse agonist activity of 4-OHT; effect on constitutive basal activity of ERR-γ (human ERR-γ): retain a high constitutive basal activity
CC/C(=C(\c1ccc(O)cc1)c1ccc(OCCN(C)C)cc1)c1ccccc1 [4-OHT, 4-hydroxytamoxifen, reference compound]	–	–	–	deactivation of ERR-γ (inverse agonist activity) (human ERR-γ; 1.0 μM): approximately 0.4 fold
CC(C)c1ccc(O)cc1 [4-Isopropylphenol, 4-isopropylphenol]	–	–	–	IC50 [1]: 71.1 ± 7.73 nM
CC(C)(c1ccccc1)c1ccc(O)cc1 [4-α-Cumylphenol, 2-(4-hydroxyphenyl)-2-phenylpropane]	–	–	–	IC50 (GST-ER-α –LBD): 4770 nM
Oc1ccc(C(c2ccc(O)cc2)(C(F)(F)F)C(F)(F)F)cc1 [Bisphenol AF, 2,2-bis(4-hydroxyphenyl)hexafluoropropane]	–	358 ± 30.5 nM	–	inhibition of the inverse agonist (deactivation) activity of 4-OHT (human ERR-γ): inhibited the inverse agonist activity of 4-OHT; effect on constitutive basal activity of ERR-γ (human ERR-γ): retain a high constitutive basal activity
CC(C)(c1ccc(O)cc1)c1ccc(O)cc1 [BPA, 2,2-bis(4-hydroxyphenyl)propane]	–	–	–	IC50 [1]: 9.78 ± 0.87 nM; inhibition of the binding of [3H]BPA [1]: almost completely inhibits; inhibition of the inverse agonist (deactivation) activity of 4-OHT (human ERR-γ): antagonizes or inhibits the deactivation activity of 4-OHT in a dose-dependent manner; effect on constitutive basal activity of ERR-γ (human ERR-γ): retained a high constitutive basal activity
